Where “and” joins values, the source holds several entries; their conditions need not be identical. Equal entries are not always repeated. One block for each molecule: values may come before it.
Columns and labels:
[1] = Blood brain barrier penetration after oral administration to mice; assay type: in vivo, mice (C57BL/6); settings: single 30 mg/kg (free base equivalent) p.o. dose, FIGS. 1A-C
Description: For this purpose, 8-week old wild-type male mice (C57BL/6) were administered a single 30 mg/kg (free base equivalent) p.o. dose of reference or test compound by gavage (n=3 mice per time point). Dosing solutions were prepared in water. After dosing, mice were euthanized with CO2 at the following time points: 0-, 0.5-, 1-, and 4-hour post-dose. […] Similarly, brains were collected from each mouse. Plasma was derived by spinning whole blood at 2700 g for 10 minutes at 4° C. followed by storage on dry ice. Whole brains were washed in cold PBS to remove contaminating blood, blotted dry, flash frozen on dry ice, and ultimately stored at −80° C. until analysis. To prepare brain samples for analysis, 50-100 mg of tissue was homogenized in […]. Samples were then clarified by centrifugation. Next, 25 μl of the brain homogenate supernatant or 25 μl of plasma were combined with 25 μl of acetonitrile:water (95/5). […] Between 20 and 30 μl sample was injected for analysis. […] When Compound B was analyzed, Compound A was used as internal standard (150.1/130.1). For calculating drug concentrations, raw data for plasma (ng/mL) and brain (ng/g) was converted to nM using the molecular weight of respective compounds and assuming 1 g of tissue is equivalent to 1 mL volume. Concentration as a function of time was plotted in GraphPad Prism version 4.02.

[2] = molecular target: T1, GCase (Mus musculus, UniProt P17439); assay: GCase enhancement in tissues of orally dosed mice; assay type: in vivo, mice (C57BL/6); settings: for GCase increase: nine doses over 2 weeks, 24-hour washout
T1 construct: Liver, spleen, lung, and brain tissues were removed; from tissue; host or cells: brain, spleen, liver, lung of C57BL/6 mice
T1 sequence (P17439 20-515): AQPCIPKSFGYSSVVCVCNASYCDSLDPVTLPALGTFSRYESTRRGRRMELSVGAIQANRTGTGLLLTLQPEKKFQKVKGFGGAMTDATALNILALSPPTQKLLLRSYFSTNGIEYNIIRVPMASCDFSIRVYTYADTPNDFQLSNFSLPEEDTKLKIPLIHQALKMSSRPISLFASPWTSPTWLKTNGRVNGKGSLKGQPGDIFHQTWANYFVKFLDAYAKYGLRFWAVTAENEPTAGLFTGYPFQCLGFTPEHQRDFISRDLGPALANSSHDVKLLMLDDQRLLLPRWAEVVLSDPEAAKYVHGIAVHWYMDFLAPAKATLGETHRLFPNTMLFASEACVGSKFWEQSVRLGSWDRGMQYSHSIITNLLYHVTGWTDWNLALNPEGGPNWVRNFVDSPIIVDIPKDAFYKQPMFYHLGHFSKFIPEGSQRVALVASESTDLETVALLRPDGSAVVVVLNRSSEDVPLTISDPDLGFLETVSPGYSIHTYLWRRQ
Description: (§1) The ability of orally administered test compounds (the hydrochloride salt form of Compound A and Compound B) to elevate GCase levels as compared to reference compound, IFG-tartrate, was assessed in mice. […] Seven animals were used per dose. The dosing solutions were prepared in water. Compounds were administered over 2 weeks as follows: week 1, Mon-Fri (On), Sat-Sun (Off); week 2, Mon-Thu (On); necropsy on Friday. Thus, a total of 9 doses (dosing solutions prepared fresh every day) were given to each mouse, with a 24-hour washout between the last dose and necropsy.
(§2) Plasma was collected by spinning blood at 2700 g for 10 minutes at 4° C. Liver, spleen, lung, and brain tissues were removed, washed in cold PBS, blotted dry, flash frozen on dry ice, and stored at −80° C. until analysis. GCase levels were measured by homogenizing approximately 50 mg tissue in 500 μL McIlvane (MI) buffer (100 mM sodium citrate, 200 mM sodium phosphate dibasic, 0.25% sodium taurocholate, and 0.1% Triton X-100, pH 5.2) at pH 5.2 for 3-5 seconds on ice with a micro homogenizer. Homogenates were then incubated at room temperature without and with 2.5 mM conduritol-B-epoxide (CBE) for 30 min. Finally, 3.7 mM 4-methylumbeliferryl-β-glucoside (4-MUG) substrate was added and incubated at 37° C. for 60 min. Reactions were stopped by addition of 0.4 M glycine, pH 10.6. Fluorescence was measured on a plate reader for 1 sec/well using 355 nm excitation and 460 nm emission. Total protein was determined in lysates using the MicroBCA kit according to the manufacturer's instructions. A 4-methylumbelliferone (4-MU) standard curve ranging from 1.0 nM to 50 μM was run in parallel for conversion of raw fluorescence data to absolute GCase activity (in the presence and absence of CBE) and expressed as nanomoles of 4-MU released per milligram of protein per hour (nmol/mg protein/hr). GCase levels and protein levels were calculated using Microsoft Excel (Redmond, Wash.) and GraphPad Prism version 4.02.

[3] = Compound concentration in brain, spleen and plasma samples of GCase enhancement study; assay type: in vivo, mice (C57BL/6); settings: nine doses; for Concentration: 24 hours after last dose
Description: as §1, §2

[4] = molecular target: T2, GCase (Homo sapiens, UniProt P04062); assay: Concentration-dependent increase in GCase activity (EC50, Emax); assay type: cell-based; settings: result in words
T2 sequence (P04062 40-536): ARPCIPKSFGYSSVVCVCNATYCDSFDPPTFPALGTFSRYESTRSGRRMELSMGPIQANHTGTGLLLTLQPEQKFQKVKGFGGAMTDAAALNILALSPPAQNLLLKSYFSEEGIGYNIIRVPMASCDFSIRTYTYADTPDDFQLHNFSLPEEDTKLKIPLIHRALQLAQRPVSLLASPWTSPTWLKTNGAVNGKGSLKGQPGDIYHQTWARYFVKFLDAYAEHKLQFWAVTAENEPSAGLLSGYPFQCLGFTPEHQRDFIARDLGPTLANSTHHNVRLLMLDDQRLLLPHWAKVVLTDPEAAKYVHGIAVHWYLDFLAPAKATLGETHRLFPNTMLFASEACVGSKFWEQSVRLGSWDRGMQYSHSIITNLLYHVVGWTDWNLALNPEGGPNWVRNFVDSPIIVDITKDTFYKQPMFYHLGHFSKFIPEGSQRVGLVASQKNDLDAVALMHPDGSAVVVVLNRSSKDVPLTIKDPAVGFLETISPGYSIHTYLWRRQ

[5] = molecular target: T3, lysosomal GCase (Homo sapiens, UniProt P04062); assay: In situ washout assay in fibroblasts (recovery of lysosomal GCase activity after compound removal); assay type: cell-based; settings: fibroblasts treated at IC90 for 16-24 hours, then drug-free medium; single exponential fit
T3 construct: assayed in situ using fibroblasts established from a normal subject; endogenous in cells; host or cells: fibroblasts from a normal subject
T3 sequence (P04062 40-536): T2 sequence (P04062 40-536)
Description: Cells seeded in 48-well plates were incubated with the indicated concentrations of compound for 16-24 hours. For the dose-response assays, cells were incubated with the in situ substrate 5-(pentafluorobenzoylamino)fluorescein di-β-D-glucopyranoside (PFBFDβGlu) for 1 hour and subsequently lysed to determine the extent of substrate hydrolysis in the presence of compound. […] Inhibition was determined as the ratio of activity in the presence of compound to that in the absence of compound. […] Cells were washed extensively and incubated in drug-free medium to allow net compound efflux from cells. Cells were then tested for lysosomal GCase activity at 2 hour intervals over a total period of 8 hours following compound removal. The increase in activity over time was fitted with a single exponential function to determine the compound's washout time.

[6] = brain, 10 mg/kg (free base equivalent) p.o.
[7] = spleen, 10 mg/kg (free base equivalent) p.o.
[8] = mice, nine p.o. doses over 2 weeks, result in words

- GCase increase [2, 6]: 2.5 -fold
- GCase increase ([2]; brain, 100 mg/kg (free base equivalent) p.o.): 3.5 -fold
- GCase increase [2, 7]: 1.9 -fold
- GCase increase ([2]; spleen, 100 mg/kg (free base equivalent) p.o.): 2.8 -fold
- Concentration in GCase assays after dilution (value in parenthesis) ([3]; brain sample, 10 mg/kg p.o.): 0.5 nM
- Concentration in GCase assays after dilution (value in parenthesis) ([3]; brain sample, 100 mg/kg p.o.): 3 nM
- Concentration in GCase assays after dilution (value in parenthesis) ([3]; spleen sample, 10 mg/kg p.o.): 0.3 nM
- Concentration in GCase assays after dilution (value in parenthesis) ([3]; spleen sample, 100 mg/kg p.o.): 1.1 nM
Compound: O[C@@H]1[C@H](CF)CNC[C@H]1O [Compound A, (3R,4R,5R)-5-(fluoromethyl)piperidine-3,4-diol]
- blood brain barrier crossing compared to IFG [1]: crossed the blood brain barrier more readily as compared to IFG

- melting point: 200 to 202 °C
- In Situ Washout [5]: 6.6 ± 0.12 h
Compound: Cl.O[C@@H]1[C@H](CF)CNC[C@H]1O [Compound A-HCl, (3R,4R,5R)-5-(fluoromethyl)piperidine-3,4-diol hydrochloride]
- effect on GCase activity [4]: concentration-dependent increase in GCase activity
- enhancement of enzyme activity compared to IFG-tartrate [4]: enhanced enzyme activity to the same maximum level at much lower concentration
- GCase enhancement at lower doses compared to IFG-tartrate [2, 8]: unexpectedly greater than that observed with IFG-tartrate even when far lower doses
- GCase enhancement in brain, spleen, liver and lung compared to control or IFG-tartrate [2, 8]: statistically significant greater GCase enhancement in brain, spleen, liver and lung as compared to mice administered control or IFG-tartrate

Compound: OC[C@H]1CNC[C@@H](O)[C@@H]1O [IFG, (3R,4R,5R)-5-(hydroxymethyl)-3,4-piperidinediol]
- GCase increase [2, 6]: 1.5 -fold
- GCase increase ([2]; brain, 100 mg/kg (free base equivalent) p.o., 100 mg/kg): 2.2 -fold and 2.1 -fold
- GCase increase [2, 7]: 1.6 -fold
- GCase increase ([2]; spleen, 100 mg/kg (free base equivalent) p.o., 100 mg/kg): 1.9 -fold and 2.0 -fold
- Concentration in GCase assays after dilution (value in parenthesis) ([3]; brain sample, 10 mg/kg p.o.): 0.2 nM
- Concentration in GCase assays after dilution (value in parenthesis) ([3]; brain sample, 100 mg/kg p.o., 100 mg/kg): 0.7 nM and 1.1 nM
- Concentration ([3]; brain, 10 mg/kg p.o.): 49 ± 2.4 nM
- Concentration ([3]; brain, 100 mg/kg p.o., 100 mg/kg): 182 ± 13 nM and 287 ± 74 nM
- Concentration ([3]; plasma, 10 mg/kg p.o.): 67 ± 10 nM
- Concentration in GCase assays after dilution (value in parenthesis) ([3]; spleen sample, 10 mg/kg p.o.): 0.5 nM
- Concentration in GCase assays after dilution (value in parenthesis) ([3]; spleen sample, 100 mg/kg p.o., 100 mg/kg): 2.6 nM and 4.2 nM
- Concentration ([3]; spleen, 10 mg/kg p.o.): 150 ± 12 nM
- Concentration ([3]; spleen, 100 mg/kg p.o., 100 mg/kg): 711 ± 100 nM and 1139 ± 220 nM

— patent US8940766B2, “Methods for preventing and/or treating lysosomal storage disorders” (Amicus Therapeutics, Inc., priority 2009, dated 2015)
